What all share (assay): NCI tumour cell line growth inhibition, 48 h
Experiment [1] has as its system M19-MEL melanoma.
The subject of experiment [2] is HOP-18 NSCLC.
Experiment [3] relates to KM20L2 colon.
The test system of experiment [4] is DLD-1 colon.
Experiment [5] deals with XF 498 CNS.
In experiment [6] the test system is P388 leukemia.
For experiment [7], the system named is SN12K1 renal.
Experiment [8] deals with DMS 114 small cell lung.
Experiment [9] concerns DMS 273 small cell lung.
In experiment [10] the test system is LXFL 529 NSCLC.
Experiment [11] has as its system P388/ADR leukemia.

Where “and” joins values, the source holds several entries; their conditions need not be identical. Equal values may be shown once.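 Where inhibition never reached the appropriate level, the endpoint shown equals the highest concentration tested. Otherwise, values were interpolated linearly from a five-concentration, 48-hour dose response in 96-well plates. GI50: concentration for 50% inhibition of growth. TGI: total growth inhibition.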

`CN(C)CCNC(=O)c1cc(Cl)cc2cc3ccccc3nc12`: the TGI came out at 3.56 µM in experiment [1]; 21.3 µM in experiment [2]; 1.42 µM in experiment [3]; 5.35 µM in [4]; 3.37 µM in [5]; 20.1 µM in experiment [6]. In addition, the results for the TGI in experiment [7], in experiment [8] and in experiment [9] were 3.34 µM, 2.21 µM and 2.71 µM, respectively.

For `COc1ccccc1CC(C)N` (configuration not stated), the TGI in [2], in experiment [3], in experiment [4], in experiment [10], in experiment [5] and in experiment [8] was > 100 µM throughout. Further, the TGI in experiment [9] is > 100 µM.

In the case of `S=c1c2[nH]cnc2ncn1CCSC1=NC=NC2=NC=NC21` (configuration not stated), the TGI in experiment [1], in experiment [2], in [3], in [4], in experiment [5] and in [8] was > 100 µM in each case. Moreover, the TGI in experiment [9] was > 100 µM.

Regarding `Nc1ccc(O)c2c1C(=O)c1c(N)ccc(O)c1C2=O`, the TGI in experiment [1], in experiment [4], in experiment [10], in experiment [5], in experiment [8] and in [9] was > 100 µM throughout.

`CCN(CC)CC[n+]1ccc2c(C)c3[nH]c4ccc(O)cc4c3c(C)c2c1`: the GI50 in experiment [1] was 0.954 µM; in experiment [2] it was 5.6 µM; in [3] it was 6.95 µM; in [4] it was 7.81 µM; in experiment [11], 5.08 µM; in experiment [6] it was 0.0256 µM. Moreover, the GI50 in experiment [7] was 0.748 µM; in experiment [8], 0.652 µM; in experiment [9], 1.93 µM. Besides, the TGI in experiment [1] is 5.48 µM and 6.71 µM; in [2], 17.9 µM and 42.8 µM; in experiment [3], 35.8 µM and 46.4 µM; in [4], > 96.4 µM and 102 µM; in experiment [10], 20 µM; in [11] it was 64.7 µM and 91.7 µM. In addition, the TGI is 2.48 µM and 4.85 µM in [6]; 11.9 µM and 16.6 µM in [7]; 8.87 µM and 15.4 µM in experiment [8]; 19.6 µM and 20.7 µM in [9].

On to `O=C(NC(Cc1ccc(Br)cc1)C(=O)O)c1ccc(I)cc1` (configuration not stated), for which the TGI in experiment [1], in experiment [2], in experiment [3], in [4], in [11] and in [5] was > 100 µM throughout. Besides, the TGI in experiment [6], in experiment [7], in [8] and in experiment [9] was > 100 µM throughout.

Turning to `CSc1nc(CO)c(CO)n1C`, the TGI in experiment [1], in experiment [2], in experiment [3], in experiment [4], in [11] and in [5] was > 100 µM each time. In addition, the TGI in experiment [6], in experiment [7], in experiment [8] and in experiment [9] was > 100 µM in each case.

As to `CC1C(=O)CC(c2cccs2)N(N=O)C1c1cccs1` (configuration not stated), the TGI was > 100 µM in [1]; > 100 µM in experiment [2]; > 100 µM in experiment [3]; > 100 µM in experiment [4]; 40.8 µM in experiment [11]; 45.3 µM in experiment [5]. For the same compound, the TGI is 43.1 µM in experiment [6], > 100 µM in experiment [7] and > 100 µM in [9].

Values taken from PubChem BioAssay (NCI).
